Measurements: patent US11485736B2 (KSQ Therapeutics, Inc., priority 2018, dated 2022)
Like-named read-outs stand apart in the source and are kept apart here.

Experiments:
[1] = ADME solubility determination at pH 2.0 and pH 7.4; format: physicochemical; details: aqueous buffer, thermodynamic from solid, LC-MS/MS
Protocol: Certain Compounds of the Disclosure were assessed for ADME solubility at pH 2.0 and pH 7.4.
Stock solutions were prepared by adding each compound to DMSO at a concentration of 10 mM. Samples were prepared by adding 50 μL of each stock solution to separate vials. The vials were loaded onto a 96-well rack and dried. 500 μL of Phosphate Buffered Saline (PBS) pH 7.4 or PBS pH 2.0 were added into each vial. The vials were then shaken at 25° C. and 1,100 rpm for 24 hours.
After 24 hours, the vials were centrifuged at 3220 G and 25° C. for 30 minutes. The supernatant fluid was analyzed by LC-MS/MS against a standard of known concentration. The solubility of each sample was then calculated using the equation below:
[formula] where DF is the dilution factor.

[2] = Liver microsomal stability, human liver microsomes; format: in vitro ADME; details: 1 μM compound, NADPH, read-out: t1/2 (min) in HLM
Protocol: (§1) Certain Compounds of the Disclosure were assessed for ADME metabolic stability in human liver microsomes (HLM) and rat liver microsomes (RLM).
(§2) Samples were prepared by adding 222.5 μL of a master solution (100 mM phosphate buffer and 1 mg/mL liver microsomes (HLM or RLM)) and 25 μL of a 10 mM NADPH solution to incubation plates, which were then warmed for 10 min. Each compound was separately dissolved in DMSO to prepare 10 mM stock solutions, which were then diluted to 100 μM with acetonitrile. A reaction was started by adding 2.5 μL of the 100 μM solution of each compound to separate incubation plates such that the final concentration of for each compound in each plate was 1 μM.
(§3) 25 μL aliquots of each sample were taken at 0.5, 5, 10, 15, 20 and 30 minutes, and the reaction was stopped by adding 5 volumes of cold acetonitrile with IS (100 nM alprazolam, 200 nM caffeine and 100 nM tolbutamide). The samples were then centrifuged at 3,220 G for 30 minutes, and 100 μL of the supernatant fluid was mixed with 100 μL of ultra-pure H2O.
(§4) The samples were then analyzed by LC-MS/MS. Peak areas were determined from extracted ion chromatograms. Slope values (k) were determined by linear regression of the natural logarithm of the remaining percentage of the compound vs. incubation time curve. […] The in vitro half-life (min) was converted into the in vitro intrinsic clearance (in vitro CLint, in μL/min/mg protein) using the following equation: […]

[3] = Liver microsomal stability, rat liver microsomes; format: in vitro ADME; details: 1 μM compound, NADPH, read-out: t1/2 (min) in RLM
Protocol: as §1, §2, §3, §4

[4] = PBS pH 2.0, shaken at 25° C. for 24 hours, read-out: Solubility at pH 2.0
[5] = PBS pH 7.4, shaken at 25° C. for 24 hours, read-out: Solubility at pH 7.4

| solubility at 24 h [1, 4] [µM] | solubility at 24 h [1, 5] [µM] | half-life at 1 μM [2] [min] | half-life at 1 μM [3] [min] | Compound |
| --- | --- | --- | --- | --- |
| > 10 | > 10 | < 25 | < 25 | COc1ncnc(C2CC2)c1-c1ncc2cnn(Cc3ccc(-c4nc(C#N)cn4C)cc3)c2n1 [Example 69] |
| > 10 | > 10 | > 25 | > 25 | COc1ncnc(C2CC2)c1-c1ncc2cnn(Cc3ccc(-c4nc(C(F)(F)F)nn4C)c(F)c3)c2n1 [Example 57] |
| > 10 | > 10 | > 25 | > 25 | [2H]C([2H])([2H])C([2H])([2H])n1cc(C(F)(F)F)nc1-c1ccc(Cn2ncc3cnc(-c4c(OC)ncnc4C4CC4)nc32)cc1 [Example 139] |
| < 10 | < 10 | > 25 | > 25 | CCn1cc(C(F)(F)F)nc1-c1ccc(Cn2ncc3cnc(-c4c(OC)ncnc4C4CC4)nc32)cn1 [Example 75] |
| < 10 | < 10 | < 25 | < 25 | CCOc1ncnc(C2CC2)c1-c1ncc2c(OCC)nn(Cc3ccc(-c4nc(C(F)(F)F)cn4CC)cc3)c2n1 [Example 183] |
| < 10 | < 10 | < 25 | < 25 | CSc1ncnc(C)c1-c1ncc2cnn(Cc3ccc(-n4nc(C(F)(F)F)cc4C)cc3)c2n1 [Example 46] |
| < 10 | < 10 | > 25 | > 25 | COc1ncnc(C2CC2)c1-c1ncc2cnn([C@H]3CCc4cc(-c5nc(C(F)(F)F)cn5C(C)C)ccc43)c2n1 [Example 173, (S)-6-(4-cyclopropyl-6-methoxypyrimidin-5-yl)-1-(5-(1-isopropyl-4-(trifluoromethyl)-1H-imidazol-2-yl)-2,3-dihydro-1H-inden-1-yl)-1H-pyrazolo[3,4-d]pyrimidine] |
| > 10 | > 10 | < 25 | > 25 | COCc1nc2cnc(-c3c(OC)ncnc3C3CC3)nc2n1Cc1ccc(-c2nc(C(F)(F)F)cn2C(C)C)cc1 [Example 207] |
| < 10 | > 10 | > 25 | > 25 | COc1ncnc(C(C)C)c1-c1ncc2cnn(Cc3ccc(-c4nc(C(F)(F)F)cn4C(C)C)cc3)c2n1 [Example 119] |
| < 10 | < 10 | > 25 | > 25 | COc1ncnc(C2CC2)c1-c1ncc2c(OC)nn(Cc3ccc(-c4cn(C(C)C)c(C(F)(F)F)n4)cc3)c2n1 [Example 185] |
| > 10 | < 10 | < 25 | > 25 | COc1ncnc(C2CC2)c1-c1ncc2nc(C)n(Cc3ccc(-c4nc(C(F)(F)F)cn4C)cc3)c2n1 [Example 206] |
| < 10 | < 10 | > 25 | > 25 | [2H]C([2H])([2H])C([2H])(n1cc(C(F)(F)F)nc1-c1ccc(Cn2ncc3cnc(-c4c(OC)ncnc4C4CC4)nc32)cc1)C([2H])([2H])[2H] [Example 140] |
| < 10 | < 10 | > 25 | > 25 | COc1ncnc(C2CC2)c1-c1ncc2cnn(Cc3ccc(-c4nc(C(F)(F)F)nn4C(C)C)cc3)c2n1 [Example 58] |
| > 10 | > 10 | > 25 | < 25 | CCn1cc(C(F)(F)F)nc1-c1ccc([C@H](C)n2ncc3cnc(-c4c(OC)ncnc4OC)nc32)cc1 [Example 88] |
